Test results from patent publication US9902736B2, “1-oxo/acylation-14-acylated oridonin derivative, preparation method therefor and application thereof” (HANGZHOU BENSHENG PHARMACEUTICAL CO., LTD., priority 2012, dated 2018).
Values after ≈ are worked out from the molar mass of the structure shown.

Assays:
SK-OV-3 = assay: Solid tumor cell growth inhibition, MTT, 72 h; type: cell-based; conditions: Homo sapiens, SK-OV-3, 72 h, MTT; for IC50: read-out: IC50 SK-OV-3; for IC90: read-out: IC90 SK-OV-3
Summary of the method: (§1)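 Seed 6000 cells per well in high-glucose DMEM supplemented with 10% fetal bovine serum. Incubate 24 hours at 37° C, 5% CO2. Add compound dilutions, mix, return to the same conditions, then measure viable cells.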

CaEs-17 = assay: Solid tumor cell growth inhibition, MTT, 72 h; type: cell-based; conditions: Homo sapiens, CaEs17
Summary of the method: as §1

MG-63 = assay: Solid tumor cell growth inhibition, MTT, 72 h; type: cell-based; conditions: Homo sapiens
Summary of the method: as §1

U87-MG = assay: Solid tumor cell growth inhibition, MTT, 72 h; type: cell-based; conditions: Homo sapiens, U-87 MG
Summary of the method: as §1

PANC-1 = assay: Solid tumor cell growth inhibition, MTT, 72 h; type: cell-based; conditions: Homo sapiens
Summary of the method: as §1

A549 = assay: Solid tumor cell growth inhibition, MTT, 72 h; type: cell-based; conditions: Homo sapiens
Summary of the method: as §1

Hep G2 = assay: Solid tumor cell growth inhibition, MTT, 72 h; type: cell-based; conditions: Homo sapiens, HepG2
Summary of the method: as §1

RKO = assay: Solid tumor cell growth inhibition, MTT, 72 h; type: cell-based; conditions: Homo sapiens
Summary of the method: as §1

Becap-37 = assay: Solid tumor cell growth inhibition, MTT, 72 h; type: cell-based; conditions: Homo sapiens
Summary of the method: as §1

PC-3 = assay: Solid tumor cell growth inhibition, MTT, 72 h; type: cell-based; conditions: Homo sapiens
Summary of the method: as §1

Kasumi-1 = assay: Leukemia cell growth inhibition, MTT, 72 h; type: cell-based; conditions: Homo sapiens
Summary of the method: (§2)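 Cells (6000 per well) are plated and treated the following day with the derivatives across a concentration range. After 72 hours at 37° C in 5% CO2, viability is determined by MTT. The K562/ADR line is drug-resistant.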

K562/ADR = assay: Leukemia cell growth inhibition, MTT, 72 h; type: cell-based; conditions: Homo sapiens
Summary of the method: as §2

Jurkat = assay: Leukemia cell growth inhibition, MTT, 72 h; type: cell-based, human; conditions: Homo sapiens, Jurkat; 72 h, MTT
Summary of the method: as §2

NB4 = assay: Leukemia cell growth inhibition, MTT, 72 h; type: cell-based, human; conditions: Homo sapiens, NB-4; 72 h, MTT
Summary of the method: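 Viability determined by MTT following a 72-hour, 37° C, 5% CO2 incubation with test compounds at different concentrations, added the day after seeding 6000 cells per well.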

H9 = assay: Leukemia cell growth inhibition, MTT, 72 h; type: cell-based, human; conditions: Homo sapiens, H9; 72 h, MTT
Summary of the method: as §2

RPMI 8226 = assay: Multiple myeloma cell growth inhibition, MTT, 72 h; type: cell-based; conditions: Homo sapiens
Summary of the method: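 Growth inhibition by MTT after 72 h drug exposure (37 °C, 5% CO2) over a concentration range of oridonin derivatives. RPMI 8226 cells plated at 6000 per well and dosed the following day.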

Hep-2 = assay: Solid tumor cell growth inhibition, MTT, 72 h; type: cell-based, human; conditions: Homo sapiens, HEp-2; 72 h, MTT
Summary of the method: as §1

MGC-803 = assay: Solid tumor cell growth inhibition, MTT, 72 h; type: cell-based, human; conditions: Homo sapiens, MGC-803; 72 h, MTT
Summary of the method: as §1

CNE = assay: Solid tumor cell growth inhibition, MTT, 72 h; type: cell-based, human; conditions: for IC50 / IC90: Homo sapiens, CNE, 72 h, MTT
Summary of the method: as §1

Hela = assay: Solid tumor cell growth inhibition, MTT, 72 h; type: cell-based, human; conditions: Homo sapiens, HeLa; 72 h, MTT
Summary of the method: as §1

C=C1C(=O)[C@]23[C@H](OC(=O)c4ccccc4Br)[C@H]1CC[C@H]2[C@@]12CO[C@@]3(O)[C@@H](O)[C@@H]1C(C)(C)CCC2=O [BS-OR-020]
IC50 (SK-OV-3): 2.56 µg/mL (≈ 4.69 µM) | IC90 (SK-OV-3): 7.07 µg/mL (≈ 13 µM) | IC50 (CaEs-17): 1.78 µg/mL (≈ 3.26 µM) | IC90 (CaEs-17): 7.28 µg/mL (≈ 13.3 µM) | IC50 (MG-63): 0.76 µg/mL (≈ 1.39 µM) | IC90 (MG-63): 4.52 µg/mL (≈ 8.29 µM) | IC50 (U87-MG): 1.19 µg/mL (≈ 2.18 µM) | IC90 (U87-MG): 3.69 µg/mL (≈ 6.77 µM) | IC50 (PANC-1): 2.32 µg/mL (≈ 4.25 µM) | IC90 (PANC-1): 6.09 µg/mL (≈ 11.2 µM) | IC50 (A549): 2.76 µg/mL (≈ 5.06 µM) | IC90 (A549): 5.78 µg/mL (≈ 10.6 µM) | IC50 (Hep G2): 1.68 µg/mL (≈ 3.08 µM) | IC90 (Hep G2): 7.35 µg/mL (≈ 13.5 µM) | IC50 (RKO): 0.84 µg/mL (≈ 1.54 µM) | IC90 (RKO): 1.94 µg/mL (≈ 3.56 µM) | IC50 (Becap-37): 1.31 µg/mL (≈ 2.4 µM) | IC90 (Becap-37): 3.95 µg/mL (≈ 7.24 µM) | IC50 (PC-3): 2.56 µg/mL (≈ 4.69 µM) | IC90 (PC-3): 7.07 µg/mL (≈ 13 µM) | IC50 (Kasumi-1): 0.76 µg/mL (≈ 1.39 µM) | IC90 (Kasumi-1): 2.85 µg/mL (≈ 5.23 µM) | IC50 (K562/ADR): 0.73 µg/mL (≈ 1.34 µM) | IC90 (K562/ADR): 2.31 µg/mL (≈ 4.24 µM) | IC50 (Jurkat): 0.88 µg/mL (≈ 1.61 µM) | IC90 (Jurkat): 4.31 µg/mL (≈ 7.9 µM) | IC50 (NB4): 0.27 µg/mL (≈ 0.495 µM) | IC90 (NB4): 1.34 µg/mL (≈ 2.46 µM) | IC50 (H9): 0.89 µg/mL (≈ 1.63 µM) | IC90 (H9): 1.84 µg/mL (≈ 3.37 µM) | IC50 (RPMI 8226): 0.59 µg/mL (≈ 1.08 µM) | IC90 (RPMI 8226): 3.84 µg/mL (≈ 7.04 µM) | IC50 (Hep-2): 1.92 µg/mL (≈ 3.52 µM) | IC90 (Hep-2): 7.4 µg/mL (≈ 13.6 µM) | IC50 (MGC-803): 1.65 µg/mL (≈ 3.03 µM) | IC90 (MGC-803): 8.86 µg/mL (≈ 16.2 µM) | IC50 (CNE): 1.8 µg/mL (≈ 3.3 µM) | IC90 (CNE): 7.21 µg/mL (≈ 13.2 µM) | IC50 (Hela): 1.79 µg/mL (≈ 3.28 µM) | IC90 (Hela): 7.19 µg/mL (≈ 13.2 µM)

C=C1C(=O)[C@]23[C@H](OC(=O)c4ccc(C)cc4)[C@H]1CC[C@H]2[C@@]12CO[C@@]3(O)[C@@H](O)[C@@H]1C(C)(C)CCC2=O [BS-OR-004]
IC50 (SK-OV-3): 1.45 µg/mL (≈ 3.02 µM) | IC90 (SK-OV-3): 3.94 µg/mL (≈ 8.2 µM) | IC50 (CaEs-17): 0.88 µg/mL (≈ 1.83 µM) | IC90 (CaEs-17): 4.58 µg/mL (≈ 9.53 µM) | IC50 (MG-63): 0.33 µg/mL (≈ 0.687 µM) | IC90 (MG-63): 0.87 µg/mL (≈ 1.81 µM) | IC50 (U87-MG): 0.8 µg/mL (≈ 1.66 µM) | IC90 (U87-MG): 3.24 µg/mL (≈ 6.74 µM) | IC50 (PANC-1): 1.31 µg/mL (≈ 2.73 µM) | IC90 (PANC-1): 8.24 µg/mL (≈ 17.1 µM) | IC50 (A549): 1.71 µg/mL (≈ 3.56 µM) | IC90 (A549): 4.9 µg/mL (≈ 10.2 µM) | IC50 (Hep G2): 0.85 µg/mL (≈ 1.77 µM) | IC90 (Hep G2): 7.84 µg/mL (≈ 16.3 µM) | IC50 (RKO): 0.31 µg/mL (≈ 0.645 µM) | IC90 (RKO): 0.87 µg/mL (≈ 1.81 µM) | IC50 (Becap-37): 0.66 µg/mL (≈ 1.37 µM) | IC90 (Becap-37): 3.3 µg/mL (≈ 6.87 µM) | IC50 (PC-3): 1.45 µg/mL (≈ 3.02 µM) | IC90 (PC-3): 3.94 µg/mL (≈ 8.2 µM) | IC50 (Kasumi-1): 0.41 µg/mL (≈ 0.853 µM) | IC90 (Kasumi-1): 1.68 µg/mL (≈ 3.5 µM) | IC50 (K562/ADR): 0.41 µg/mL (≈ 0.853 µM) | IC90 (K562/ADR): 1.72 µg/mL (≈ 3.58 µM) | IC50 (Jurkat): 0.62 µg/mL (≈ 1.29 µM) | IC90 (Jurkat): 2.7 µg/mL (≈ 5.62 µM) | IC50 (NB4): 0.13 µg/mL (≈ 0.271 µM) | IC90 (NB4): 0.76 µg/mL (≈ 1.58 µM) | IC50 (H9): 0.34 µg/mL (≈ 0.708 µM) | IC90 (H9): 0.83 µg/mL (≈ 1.73 µM) | IC50 (RPMI 8226): 0.31 µg/mL (≈ 0.645 µM) | IC90 (RPMI 8226): 1.77 µg/mL (≈ 3.68 µM) | IC50 (Hep-2): 1.38 µg/mL (≈ 2.87 µM) | IC90 (Hep-2): 6.79 µg/mL (≈ 14.1 µM) | IC50 (MGC-803): 0.65 µg/mL (≈ 1.35 µM) | IC90 (MGC-803): 4.88 µg/mL (≈ 10.2 µM) | IC50 (CNE): 0.95 µg/mL (≈ 1.98 µM) | IC90 (CNE): 4.67 µg/mL (≈ 9.72 µM) | anti-CNE activity increased (CNE; in comparison with oridonin): ~6 fold | IC50 (Hela): 1.28 µg/mL (≈ 2.66 µM) | IC90 (Hela): 3.87 µg/mL (≈ 8.05 µM)
